Test results taken from patent publication US8536210B2, “Compounds for inhibiting semicarbazide-sensitive amine oxidase (SSAO)/vascular adhesion protein-1 (VAP-1) and uses thereof for treatment and prevention of diseases” (Semmelweis Egyetem, priority 2008, dated 2013).

Key:
[1] = target: human recombinant VAP-1 (SSAO/VAP-1 enzyme) (Homo sapiens (Human), UniProt Q16853); assay: In vitro inhibition of SSAO activity on human recombinant VAP-1 (colorimetric, benzylamine substrate); assay type: biochemical; conditions: for IC50: recombinant SSAO/VAP-1 in CHO cell homogenate, 1 mM benzyl amine
Method: For determining the SSAO/VAP-1 activity, the colorimetric method described by Holt, A (Holt, A., Anal. Biochem. 244, 384, 1997) for monoamine oxidase and analogous enzymes was used. Recombinant SSAO/VAP-1 enzyme was expressed in Chinese Hamster Ovary cells (CHO). These cells and cell cultures have been described earlier (Smith, D. J. et al, J. Exp. Med. 188, 17, 1998). The cell homogenate was prepared as follows: a suspension was made of approximately 3.6×10^8 cells in 25 ml lysation buffer (150 mM NaCl, 10 mM Tris-base pH 7.2, 1.5 mM MgCl2, 1% NP40), that was stirred for 1 night and incubated at 4° C. The homogenate was centrifugated (18000 g). The supernatant was used directly afterwards for the measurement. SSAO/VAP-1 activity measurement was carried out as follows on 96 precisely microtitrated plates, a given amount of inhibitor was added to each. The amount of the inhibitors varied among the measurements, the final concentration being between 1 nM and 50 μM in general, in 20 μl aqueous total volume for all cases. Then 0.2 M potassium phosphate buffer (pH=7.6) was added, to obtain a total volume of 200 μl 50 μl freshly prepared chromogen solution was given, which contains 1 mM of vanillic acid, 500 μM 4-aminoantipyrin, 8 U/ml horse radish peroxidase, and such an amount of SSAO/VAP-1 containing CHO cell homogenate that causes a 0.6 A-490 per h change, the latter being in the linear coherence scope of the method. The plates were incubated for 30 min at 37° C. and the background absorbance was measured at 490 nm by a Wallac Victor II apparatus. For starting the enzyme reaction, 20 μl 10 mM benzyl amine solution was added, the final concentration of which was therefore 1 mM. The plates were reincubated at 37° C. for 1 h. The increase in the absorbance showing the SSAO/VAP-1 activity was measured at 490 nm. The inhibition was calculated in the % of the control absorbance corrected with the background absorbance, IC50 values were calculated using GraphPad Prism.

[2] = test system: acetic acid induced writhing syndrome; assay: Inhibition of acetic acid induced writhing on mice; assay type: in vivo; conditions: 20 minutes prior to acetic acid
Method: The method described by Van der Wende (Van der Vende C, Margolin S, Fed. Proc., 15, 494, 1956) with the modifications of Witkin et al. (Witkin L B et al, J. Pharm. Exp. Ther., 133, 400, 1961) was applied. 0.2 ml of a 0.6% acetic acid solution was injected intraperitoneally, causing a typical writhing syndrome in 90% of the animals. Compounds of the invention were administered subcutaneously, 20 minutes prior to acetic acid exposure. Antianalgetic effect was determined by the formula, which is shown below, and is expressed in % values. (number of writhings in treatment group (5′)/number of writhings in control group (5′))×100

[3] = test system: carrageenan-induced rat paw edema; assay: Inhibition of carrageenan-induced rat paw edema; assay type: in vivo
From the text: Carrageenan-induced rat paw edema has been extensively used in the evaluation of anti-inflammatory effects of various agents and it is useful in assessing the efficacy of compounds to alleviate acute inflammation (Whiteley P E, Dalrymple S A (1998) Models of inflammation: carrageenan-induced paw edema in the rat, in Current Protocols in Pharmacology (Enna S J, Williams M, Ferkany J W, Kenakin T, Porsolt R E, Sullivan J P eds) pp 5.4.1-5.4.3, John Wiley & Sons, New York.). Edema in the paws was induced by injecting 0.1 ml of a 1% solution of carrageenan intraplantary. […] […] Inhibitory effects are expressed in % values.

Sequence of human recombinant VAP-1 (SSAO/VAP-1 enzyme) (Q16853 whole entry): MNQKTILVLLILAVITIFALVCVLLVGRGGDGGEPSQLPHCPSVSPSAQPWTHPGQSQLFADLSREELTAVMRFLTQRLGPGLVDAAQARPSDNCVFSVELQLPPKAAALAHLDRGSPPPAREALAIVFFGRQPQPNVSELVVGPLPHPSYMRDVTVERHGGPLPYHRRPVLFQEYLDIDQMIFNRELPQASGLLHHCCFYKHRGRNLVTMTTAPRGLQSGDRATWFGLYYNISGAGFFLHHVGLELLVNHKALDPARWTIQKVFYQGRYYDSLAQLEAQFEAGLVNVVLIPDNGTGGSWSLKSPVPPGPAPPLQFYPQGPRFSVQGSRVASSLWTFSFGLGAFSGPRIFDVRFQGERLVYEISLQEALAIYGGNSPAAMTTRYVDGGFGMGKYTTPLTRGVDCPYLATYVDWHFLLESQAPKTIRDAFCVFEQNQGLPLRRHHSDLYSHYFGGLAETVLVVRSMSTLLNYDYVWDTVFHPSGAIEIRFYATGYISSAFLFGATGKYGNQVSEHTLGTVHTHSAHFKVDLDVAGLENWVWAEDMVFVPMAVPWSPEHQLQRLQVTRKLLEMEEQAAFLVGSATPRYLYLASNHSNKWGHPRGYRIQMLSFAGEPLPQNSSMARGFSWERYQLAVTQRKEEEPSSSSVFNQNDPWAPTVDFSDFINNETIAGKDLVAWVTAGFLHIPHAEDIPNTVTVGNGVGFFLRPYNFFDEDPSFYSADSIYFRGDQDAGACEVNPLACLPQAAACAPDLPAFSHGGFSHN

Cn1ncc(N2CCCC2)c(-c2ccccc2C=NO)c1=O [Compound 38, 2-(2-Methyl-3-oxo-5-pyrrolidino-2,3-dihydropyridazin-4-yl)benzaldehyde oxime]
inhibition at 500 µM [1]: 31%

ON=Cc1cccc2cccc(N3CCCC3)c12 [Compound 5, 8-Pyrrolidino-1-naphthaldehyde oxime]
inhibition at 50 µM ([1]; at 50 μM): 32%

Cn1nc2c(c(C=NO)c1=O)N1CCCC1CO2 (centres unmarked) [Compound 35, 3-Methyl-2-oxo-2,3,6a,7,8,9-hexahydro-6H-pyridazino[3,4-b]pyrrolo[1,2-d][1,4]oxazine-1-carbaldehyde oxime]
inhibition at 500 µM [1]: 55%

C=CCN(C)c1c(C=NO)c(=O)n(C)c(=O)n1C [Compound 27, 6-[Allyl(methyl)amino]-1,3-dimethyl-2,4-dioxo-1,2,3,4-tetrahydropyrimidine-5-carbaldehyde oxime]
IC50 [1]: 41 µM

CSc1c(C=NO)c(=O)n(C)c(=O)n1C [Compound 22, 1,3-Dimethyl-6-(methylthio)-2,4-dioxo-1,2,3,4-tetrahydropyrimidine-5-carbaldehyde oxime]
Inhibition of writhing syndrome in % ([2]; 5 mg/kg s.c.): 70 ± 5 %
Inhibition of writhing syndrome in % ([2]; 15 mg/kg s.c.): 100%
IC50 [1]: 48 µM
Inhibition of rat paw edema in % ([3]; 7.5 mg/kg s.c., 60 min): 15 ± 2%
Inhibition of rat paw edema in % ([3]; 7.5 mg/kg s.c., 120 min): 55 ± 5 %
Inhibition of rat paw edema in % ([3]; 7.5 mg/kg s.c., 180 min): 60 ± 5 %
Inhibition of rat paw edema in % ([3]; 15 mg/kg s.c., 60 min): 60 ± 6 %
Inhibition of rat paw edema in % ([3]; 15 mg/kg s.c., 120 min): 63 ± 7 %
Inhibition of rat paw edema in % ([3]; 15 mg/kg s.c., 180 min): 65 ± 7 %
Inhibition of rat paw edema in % ([3]; 30 mg/kg p.o., 60 min): 0%
Inhibition of rat paw edema in % ([3]; 30 mg/kg p.o., 120 min): 21 ± 2%
Inhibition of rat paw edema in % ([3]; 30 mg/kg p.o., 180 min): 21 ± 2%
Inhibition of rat paw edema in % ([3]; 30 mg/kg s.c., 60 min): 58 ± 7 %
Inhibition of rat paw edema in % ([3]; 30 mg/kg s.c., 120 min): 54 ± 5 %
Inhibition of rat paw edema in % ([3]; 30 mg/kg s.c., 180 min): 72 ± 8 %

COc1ccc2c(c1)c(CC(=O)O)c(C)n2C(=O)c1ccc(Cl)cc1 [Indomethacin, reference compound]
Inhibition of rat paw edema in % ([3]; 2.5 mg/kg p.o., 60 min): 32 ± 2 %
Inhibition of rat paw edema in % ([3]; 2.5 mg/kg p.o., 120 min): 51 ± 4 %
Inhibition of rat paw edema in % ([3]; 2.5 mg/kg p.o., 180 min): 53 ± 5 %

Cn1c(Sc2ccccc2)c(C=NO)c(=O)n(C)c1=O [Compound 24, 1,3-Dimethyl-2,4-dioxo-6-(phenylthio)-1,2,3,4-tetrahydropyrimidine-5-carbaldehyde oxime]
IC50 [1]: 106 µM

CCOc1c(C=NO)c(=O)n(C)c(=O)n1C [Compound 16, 6-Ethoxy-1,3-dimethyl-2,4-dioxo-1,2,3,4-tetrahydropyrimidine-5-carbaldehyde oxime]
Inhibition of writhing syndrome in % ([2]; 15 mg/kg s.c.): 86 ± 7 %
Inhibition of writhing syndrome in % ([2]; 30 mg/kg s.c.): 96 ± 6 %
Inhibition of rat paw edema in % ([3]; 30 mg/kg s.c., 60 min): 8 ± 1%
Inhibition of rat paw edema in % ([3]; 30 mg/kg s.c., 120 min): 19 ± 2%
Inhibition of rat paw edema in % ([3]; 30 mg/kg s.c., 180 min): 31 ± 4%

ON=Cc1c(Br)ccc2c1OCO2 [Compound 9, 5-Bromo-1,3-benzodioxole-4-carbaldehyde oxime]
Inhibition of writhing syndrome in % ([2]; 15 mg/kg s.c.): 84 ± 8 %
Inhibition of writhing syndrome in % ([2]; 30 mg/kg s.c.): 80 ± 7 %
IC50 [1]: 14.9 µM
Inhibition of rat paw edema in % ([3]; 7.5 mg/kg s.c., 60 min): 63 ± 7 %
Inhibition of rat paw edema in % ([3]; 7.5 mg/kg s.c., 120 min): 62 ± 6 %
Inhibition of rat paw edema in % ([3]; 7.5 mg/kg s.c., 180 min): 66 ± 5 %
Inhibition of rat paw edema in % ([3]; 15 mg/kg s.c., 60 min): 53 ± 5 %
Inhibition of rat paw edema in % ([3]; 15 mg/kg s.c., 120 min): 52 ± 3 %
Inhibition of rat paw edema in % ([3]; 15 mg/kg s.c., 180 min): 66 ± 7 %
Inhibition of rat paw edema in % ([3]; 30 mg/kg p.o., 60 min): 0%
Inhibition of rat paw edema in % ([3]; 30 mg/kg p.o., 120 min): 5 ± 1%
Inhibition of rat paw edema in % ([3]; 30 mg/kg p.o., 180 min): 0%
Inhibition of rat paw edema in % ([3]; 30 mg/kg s.c., 60 min): 54 ± 6 %
Inhibition of rat paw edema in % ([3]; 30 mg/kg s.c., 120 min): 40 ± 5 %
Inhibition of rat paw edema in % ([3]; 30 mg/kg s.c., 180 min): 50 ± 5 %

ON=Cc1c(O)ccc2c1OCO2 [Compound 6, 5-Hydroxy-1,3-benzodioxole-4-carbaldehyde oxime]
IC50 [1]: 4.3 µM

ON=CCCc1nc(-c2ccccc2)c(-c2ccccc2)o1 [Compound 40, 3-(4,5-Diphenyl-1,3-oxazol-2-yl)propanal oxime]
IC50 [1]: 3.5 µM

COc1ccc(Cn2ncc(N3CCOCC3)c(/C=N/O)c2=O)cc1 [Compound 32, E-2-(4-Methoxybenzyl)-5-morpholino-3-oxo-2,3-dihydropyridazine-4-carbaldehyde oxime]
IC50 [1]: 263 µM

Cn1ncc(N2CCCCC2)c(/C=N/O)c1=O [Compound 29, E-2-Methyl-3-oxo-5-piperidino-2,3-dihydropyridazine-4-carbaldehyde oxime]
IC50 [1]: 240 µM

CCCSc1c(C=NO)c(=O)n(C)c(=O)n1C [Compound 21, 1,3-Dimethyl-2,4-dioxo-6-(propylthio)-1,2,3,4-tetrahydropyrimidine-5-carbaldehyde oxime]
IC50 [1]: 58 µM

CCCOc1c(C=NO)c(=O)n(C)c(=O)n1C [Compound 18, 1,3-Dimethyl-2,4-dioxo-6-propoxy-1,2,3,4-tetrahydropyrimidine-5-carbaldehyde oxime]
IC50 [1]: 18 µM

CC1Oc2ccc(Br)c(C=NO)c2O1 (centres unmarked) [Compound 10, 5-Bromo-2-methyl-1,3-benzodioxole-4-carbaldehyde oxime]
inhibition at 500 µM [1]: 35%

ON=Cc1ccccc1-c1ccc2c(c1C=NO)OCO2 [Compound 12, 5-{2-[(hydroxyimino)methyl]phenyl}-1,3-benzodioxole-4-carbaldehyde oxime]
IC50 [1]: 180 µM

COc1c(C=NO)c(=O)n(C)c(=O)n1C [Compound 17, 6-Methoxy-1,3-dimethyl-2,4-dioxo-1,2,3,4-tetrahydropyrimidine-5-carbaldehyde oxime]
IC50 [1]: 30 µM

CCSc1c(C=NO)c(=O)n(C)c(=O)n1C [Compound 23, 6-(Ethylthio)-1,3-dimethyl-2,4-dioxo-1,2,3,4-tetrahydropyrimidine-5-carbaldehyde oxime]
IC50 [1]: 111 µM

CCOc1c(C=NOC)c(=O)n(C)c(=O)n1C [Compound 19, 6-Ethoxy-1,3-dimethyl-2,4-dioxo-1,2,3,4-tetrahydropyrimidine-5-carbaldehyde O-methyloxime]
IC50 [1]: 29 µM

CCOc1ccc2c(c1C=NO)OCO2 [Compound 7, 5-Ethoxy-1,3-benzodioxole-4-carbaldehyde oxime]
IC50 [1]: 40 µM

CCSc1c(C=NOC)c(=O)n(C)c(=O)n1C [Compound 25, 6-(Ethylthio)-1,3-dimethyl-2,4-dioxo-1,2,3,4-tetrahydropyrimidine-5-carbaldehyde O-methyloxime]
IC50 [1]: 113 µM

C=CCOc1ccc2c(c1C=NO)OCO2 [Compound 8, 5-(Allyloxy)-1,3-benzodioxole-4-carbaldehyde oxime]
IC50 [1]: 95 µM

COc1cccc(C=NO)c1C [Compound 1, 3-Methoxy-2-methylbenzaldehyde oxime]
melting point: 110 °C
IC50 [1]: 102 µM
